Experimental findings from US20240366571A1, “MODULATORS OF SK4 POTASSIUM CHANNEL AND USES THEREOF” (Ramot at Tel-Aviv University Ltd., priority 2022, published 2024) are described below.

“Also recorded” adds a separate entry of the source.

The first assay concerns the target T1, human SK4 (Homo sapiens, UniProt O15554).
T1 construct: expressed in transfected cells; host or cells: CHO cells
Kind of assay: Whole-cell patch-clamp of WT SK4 K+ currents in transfected CHO cells. The assay is classed as cell-based. Conditions: 20 μM, whole-cell. As for the experimental part: Constructs: For CHO cell transfection, the following were cloned: human SK1, rat SK2, human SK3, and rat calmodulin into the pcDNA3 vector, human SK4 into pEGFP-C1 vector, and PIP4,5-kinase into an IRES-dsRed plasmid. The mutations were introduced using the PCR-based QuikChange™ site-directed mutagenesis (Stratagene®) and were verified by full sequencing of the entire plasmid vector.
Cell Culture and Transfection: Chinese hamster ovary (CHO) cells were grown in Dulbecco's modified Eagle's medium supplemented with 2 millimolar (mM) glutamine, 10% fetal calf serum, and antibiotics. In brief, 40,000 cells seeded on poly-L-lysine-coated glass coverslips (13 millimeter (mm) in diameter) in a 24-multiwell plate were transfected with 0.5 microgram (μg) pEGFP-SK4/0.5 μg mutant SK4, 1.2 μg dsRed-PIP4,5-kinase or with 1 μg SK1/SK2/SK3 together with pIRES-CD8 (0.3 μg) as a marker for transfection. Transfection was performed using TransIT-LT1 Transfection Reagent (Mirus Bio) according to the manufacturer's protocol. For electrophysiology, transfected cells were visualized approximately 40 hours after transfection with a Zeiss Axiovert 35 inverted florescence microscope.
Whole-cell patch-clamp recording: Voltage-clamp recordings were performed using the whole-cell configuration of the patch-clamp technique. Signals were amplified using an […] patch-clamp amplifier (Molecular Devices), sampled at 5 kHz and filtered at 2.4 kHz via a four pole Bessel low pass filter. Data were acquired using pClamp™ 10.5 software in conjunction with an Axon™ DigiData® 1440A interface (Molecular Devices). The patch pipettes were pulled from borosilicate glass (Harvard Apparatus) with a resistance of 3-5 megaohms (MΩ). The intracellular pipette solution contained 130 mM KCl, 5 mM EGTA, 10 mM HEPES, pH 7.3 (adjusted with KOH), and CaCl2 calculated for a final concentration of 1 μM free-Ca^2+, by MAXCHELATOR (WEBMAXC STANDARD) software, with sucrose added to adjust osmolarity to 290 mosM. The external solution (310 mosM) contained 140 mM NaCl, 4 mM KCl, 1.8 mM CaCl2, 1.2 mM MgCl2, 11 mM glucose, and 5.5 mM HEPES adjusted with NaOH to pH 7.3. CHO cells were held at −90 millivolt (mV) and SK4 K^+ currents were activated using a voltage ramp protocol from −100 mV to +60 mV for 150 milliseconds. Electrophysiological data analysis was performed using the Clampfit program (pClamp™ 10.5; Molecular Devices).
Some of the compounds were tested by comparing trace of WT SK4 channel currents in the absence and presence of 20 μM of the tested compound.
(The patch-clamp technique gives a direct electrical read-out from membranes.)
For the compound `CCCCCCCn1c(=O)[nH]c2ccccc21` [BA6B, 1-heptyl-1,3-dihydro-2H-benzo[d]imidazol-2-one], the “inhibition of WT SK4 currents” value is on record as “about 25%”.

Still in this assay, the particulars now being: CHO, 20 μM, whole-cell.
The term inhibition denotes how much of the control response was suppressed. Higher therefore signals strong suppression. Turning to `CCCCCCCn1c(=O)[nH]c2ccccc21` [BA6B, 1-heptyl-1,3-dihydro-2H-benzo[d]imidazol-2-one], at 20 µM the inhibition was 25%.

The assay is the same for the next values; noted with them: WT SK4 currents in absence and presence of 20 μM compound.
In the case of `CCCCCCCn1c(=O)n(CCCCCCC)c2cc(F)ccc21` [BA69, 5-fluoro-1,3-diheptyl-1,3-dihydro-2H-benzo[d]imidazol-2-one], the “SK4 K+ channel modulating activity” value is “Inactive”.
The same measure, in the same setting: in the case of `CCCCCn1c(=O)n(CCCCC)c2cc(C)ccc21` [BA23, 5-methyl-1,3-dipentyl-1,3-dihydro-2H-benzo[d]imidazol-2-one] it was “Inactive”; in that of `CCCCCCCCCCn1c(=O)n(CCCCCCCCCC)c2ccccc21` [BA8A, 1,3-didecyl-1,3-dihydro-2H-benzo[d]imidazol-2-one], “Inactive”; in that of `CCCn1c(=O)n(CCC)c2cc(C)ccc21` [BA2OC3c, 5-methyl-1,3-dipropyl-1,3-dihydro-2H-benzo[d]imidazol-2-one], “Inactive”.
For the compound `CCCCCCn1c(=O)n(CCCCCC)c2cc(C)ccc21` [BA26, 1,3-dihexyl-5-methyl-1,3-dihydro-2H-benzo[d]imidazol-2-one], the “SK4 K+ channel modulating activity” value is given as “Inactive”.
Consider `Cc1ccc2[nH]c(=O)[nH]c2c1` [BA20, 5-methyl-1,3-dihydro-2H-benzo[d]imidazol-2-one], for which the “SK4 K+ channel modulating activity” value is “Inactive”.
Regarding `CCCCCCCCn1c(=O)[nH]c2ccccc21` [BA7B, 1-octyl-1,3-dihydro-2H-benzo[d]imidazol-2-one], the “SK4 K+ channel modulating activity” value is listed as “Inactive”.
Same read-out and setting: in the case of `CCCCCn1c(=O)n(CCCCC)c2cc(Cl)c(Cl)cc21` [BA42, 5,6-dichloro-1,3-dipentyl-1,3-dihydro-2H-benzo[d]imidazol-2-one] it was “Inactive”; in that of `CCCn1c(=O)n(CCC)c2ccccc21` [BA3A, 1,3-dipropyl-1,3-dihydro-2H-benzo[d]imidazol-2-one], “Inactive”; in that of `CCCCCn1c(=O)n(CCCCC)c2ccccc21` [BA4A, 1,3-dipentyl-1,3-dihydro-2H-benzo[d]imidazol-2-one], “Inactive”.
On to `Cc1cc2[nH]c(=O)[nH]c2cc1C` [BA50, 5,6-dimethyl-1,3-dihydro-2H-benzo[d]imidazol-2-one], for which the “SK4 K+ channel modulating activity” value is reported as “Inactive”.
On to `CCCCCCn1c(=O)n(CCCCCC)c2ccccc21` [BA5A, 1,3-dihexyl-1,3-dihydro-2H-benzo[d]imidazol-2-one], for which the “SK4 K+ channel modulating activity” value was “Inactive”.
Take `Cc1ccc2c(c1)n(C)c(=O)n2C` [BA2OC1c, 1,3,5-trimethyl-1,3-dihydro-2H-benzo[d]imidazol-2-one]: the “SK4 K+ channel modulating activity” value is “Inactive”.
As to `CCCCCn1c(=O)n(CCCCC)c2cc(F)ccc21` [BA63, 5-fluoro-1,3-dipentyl-1,3-dihydro-2H-benzo[d]imidazol-2-one], the “SK4 K+ channel modulating activity” value is on record as “Inactive”.
`CCCCCCn1c(=O)n(CCCCCC)c2cc(Cl)c(Cl)cc21` [BA44, 5,6-dichloro-1,3-dihexyl-1,3-dihydro-2H-benzo[d]imidazol-2-one]: the “SK4 K+ channel modulating activity” value is “Inactive”.
As to `CCCCCn1c(=O)[nH]c2ccccc21` [BA4B, 1-pentyl-1,3-dihydro-2H-benzo[d]imidazol-2-one], the “SK4 K+ channel modulating activity” value is on record as “inhibition; also recorded: Inhibitor”.
The same measure, in the same setting: in the case of `CCCCCCn1c(=O)n(CCCCCC)c2cc(C)c(C)cc21` [BA54, 1,3-dihexyl-5,6-dimethyl-1,3-dihydro-2H-benzo[d]imidazol-2-one] it was “Inactive”.
Consider `CCCCCCCn1c(=O)n(CCCCCCC)c2cc(Cl)c(Cl)cc21` [BA46, 5,6-dichloro-1,3-diheptyl-1,3-dihydro-2H-benzo[d]imidazol-2-one], for which the “SK4 K+ channel modulating activity” value is given as “Inactive”.
Same read-out and setting: in the case of `CCCCCCCCCCn1c(=O)[nH]c2ccccc21` [BA8B, 1-decyl-1,3-dihydro-2H-benzo[d]imidazol-2-one] it was “Inactive”.
In the case of `CCCCCCCCCCCCn1c(=O)n(CCCCCCCCCCCC)c2ccccc21` [BA9A, 1,3-didodecyl-1,3-dihydro-2H-benzo[d]imidazol-2-one], the “SK4 K+ channel modulating activity” value is listed as “Inactive”.
As to `CCCn1c(=O)[nH]c2ccccc21` [BA3B, 1-propyl-1,3-dihydro-2H-benzo[d]imidazol-2-one], the “SK4 K+ channel modulating activity” value is reported as “Inactive”.
Regarding `CCCCCCn1c(=O)[nH]c2ccccc21` [BA5B, 1-hexyl-1,3-dihydro-2H-benzo[d]imidazol-2-one], the “SK4 K+ channel modulating activity” value was “inhibition; also recorded: Inhibitor”.
For `CCCCCCCn1c(=O)n(CCCCCCC)c2ccccc21` [BA6A, 1,3-diheptyl-1,3-dihydro-2H-benzo[d]imidazol-2-one], the “SK4 K+ channel modulating activity” value is “Inactive”.
As to `Cn1c(=O)n(C)c2ccccc21` [BA2A, 1,3-dimethyl-1,3-dihydro-2H-benzo[d]imidazol-2-one], the “SK4 K+ channel modulating activity” value was “Inactive”.
As to `CCCCCCCn1c(=O)[nH]c2ccccc21` [BA6B, 1-heptyl-1,3-dihydro-2H-benzo[d]imidazol-2-one], the “SK4 K+ channel modulating activity” value is listed as “inhibited; also recorded: inhibition; also recorded: Inhibitor”.
On to `CCCCCCCCn1c(=O)n(CCCCCCCC)c2ccccc21` [BA7A, 1,3-dioctyl-1,3-dihydro-2H-benzo[d]imidazol-2-one], for which the “SK4 K+ channel modulating activity” value is “Inactive”.
Same read-out and setting: in the case of `CCCCCCCn1c(=O)n(CCCCCCC)c2cc(C)c(C)cc21` [BA56, 1,3-diheptyl-5,6-dimethyl-1,3-dihydro-2H-benzo[d]imidazol-2-one] it was “Inactive”.
For the compound `Cc1cccc2[nH]c(=O)[nH]c12` [BA30, 4-methyl-1,3-dihydro-2H-benzo[d]imidazol-2-one], the “SK4 K+ channel modulating activity” value is recorded as “Inactive”.
In the case of `CCCCCCn1c(=O)n(CCCCCC)c2cc(F)ccc21` [BA66, 5-fluoro-1,3-dihexyl-1,3-dihydro-2H-benzo[d]imidazol-2-one], the “SK4 K+ channel modulating activity” value is listed as “Inactive”.
As for `CCCCCCCn1c(=O)n(CCCCCCC)c2cc(C)ccc21` [BA29, 1,3-diheptyl-5-methyl-1,3-dihydro-2H-benzo[d]imidazol-2-one], the “SK4 K+ channel modulating activity” value is given as “Inactive”.

The assay is the same for the next values; noted with them: dose-dependent inhibition of WT SK4 channels; read-out: SK4 K+ channel modulating activity (IC50).
For orientation: IC50 means the concentration that gives 50% inhibition. As for `CCCCCCCn1c(=O)[nH]c2ccccc21` [BA6B, 1-heptyl-1,3-dihydro-2H-benzo[d]imidazol-2-one], the IC50 came to 50 µM.
